Data: patent US12049444B2, “Monomethyl fumarate precursor drug compounds and pharmaceutical compositions thereof” (AGATHONBIO CO., LTD., priority 2019, dated 2024)
Counter-ions that a name gives are not always drawn.

Assays:
[1] = cited from earlier work
[2] = rat, in vivo, po, 0.139 mmol/kg
Procedure: The test compounds and control compounds were each prepared in the same way and administered at a dose of 0.139 mmol/kg to rats, and after blood was collected at a predetermined time, plasma was separated. Analysis of the drug was performed using HPLC (XBridge column C18, Waters, mobile phase 0.1% formic acid:acetonitrile (30:70, %/%)) and MS/MS (ESI positive, MRM). Each commercial standard solution was mixed with rat blank plasma at a ratio of 9:1 to prepare standard solutions and calibrate at concentrations of 5, 50, 100, 500, 100 and 5,000 ng/ml. In addition, the QC sample was prepared at 100, 750 and 2,500 ng/ml concentrations by mixing rat blank plasma and QC standard solution in a 9:1 ratio. […] And the concentration of the active ingredient in rat plasma, that is, monomethyl fumarate, was quantified by applying the previously verified assay. For pharmacokinetic parameters, WinNonlin 5.2 (Pharsight, USA) program was used, and AUC0-t, AUC0-∞, Cmax, Tmax, and t1/2 were calculated by noncompartment modeling (best fit). Pharmacokinetic parameter results were expressed as mean (Mean) and standard deviation (SD), and statistically processed using the SPSS program (Statistical Package for the Social Sciences, 10.0K, USA).

Structure (SMILES)	safety in phase 1 clinical trial [1]	AUC0-24 [2] [ng·h/mL]
CCN(CC)C(=O)COC(=O)/C=C/C(=O)OC [Reference Example 1, 2-(diethylamino)-2-oxoethyl Methyl Fumarate]	proven to be safe	8280
COC(=O)/C=C/C(=O)OCCN1C(=O)CCC1=O [ALKS8700, diroximel fumarate]	proven to be safe	
